Source: patent US8906395B2, “Pharmaceutical composition in which solubility of partially soluble tricyclic derivative is improved” (Jeil Pharmaceutical Co., Ltd., priority 2010, dated 2014)
Values after ≈ are worked out from the molar mass of the structure shown.

How the values were obtained:
cancer cell lines = conditions: cited from earlier work
[1] = Solubility of tricyclic derivative compound in solubilizing agents (HPLC); format: physicochemical
Method: The solubility of the tricyclic derivative compound in a solubilizing agent was measured in the following manner.

[2] = compared to a colchicine or taxol injection; cited from earlier work
[3] = Solubility of tricyclic derivative compound in water (HPLC); format: physicochemical; conditions: distilled water, room temperature, stirred 24 hours, 0.2 μm filtrate
Method: The solubility of the tricyclic derivative compound of Formula 1 in water was measured in the following manner.
1.42 mg of the tricyclic derivative compound was dissolved in acetonitrile to prepare […] of a solution which was then serially diluted to prepare 50 μl/ml, 20 μl/ml and 10 μl/ml of standard solutions. 3-ethoxythiocolchicine as an internal standard was added to each of the standard solutions which were then analyzed by HPLC to measure the area ratio of the tricyclic derivative compound.
Then, 1 g of the tricyclic derivative compound was added to 10 ml of distilled water to make a suspension which was then stirred at room temperature for 24 hours to sufficiently dissolve the compound. Then, the suspension was filtered through a 0.2 μm membrane to remove insoluble materials, and the remaining filtrate was analyzed by HPLC using 3-ethoxythiocolchicine as an internal standard to measure the area ratio of the tricyclic derivative compound, which was then compared with the area ratio of the standard curve shown in FIG. 1, thereby determining the concentration of the tricyclic derivative compound dissolved in water.

tumor = conditions: in vivo; cited from earlier work
HUVEC cells = conditions: cited from earlier work

In the case of `CCOc1cc2c(c(OC)c1OC)-c1ccc(SC)c(=O)cc1[C@@H](NC(=O)c1cccc(CO[N+](=O)[O-])c1F)CC2` [tricyclic derivative compound], the “cytotoxicity against cancer cell lines” value (cancer cell lines) is given as “very strong cytotoxicity”, the Solubility ([1]; PEG 400:water 0:100) is given as “Not detected” and the solubility at 24 h ([1]; PEG 400:water 10:90, aqueous with cosolvent or surfactant or cyclodextrin) is given as 0.21 µg/mL (≈ 0.359 µM). The solubility at 24 h ([1]; PEG 400:water 20:80, aqueous with cosolvent or surfactant or cyclodextrin) was 2.94 µg/mL (≈ 5.03 µM), the solubility at 24 h ([1]; PEG 400:water 30:70, aqueous with cosolvent or surfactant or cyclodextrin) was 1.24 µg/mL (≈ 2.12 µM) and the solubility at 24 h ([1]; PEG 400:water 40:60, aqueous with cosolvent or surfactant or cyclodextrin) was 53.9 µg/mL (≈ 92.3 µM). For the same compound, the solubility at 24 h ([1]; PEG 400:water 50:50, aqueous with cosolvent or surfactant or cyclodextrin) was 189 µg/mL (≈ 323 µM), the solubility at 24 h ([1]; PEG 400:water 100:0, organic solvent or mixture) was 52000 µg/mL (≈ 89000 µM) and the solubility at 24 h ([1]; benzyl alcohol, organic solvent or mixture, solvent: Benzylalcohol) was over 103000 µg/mL. For the same compound, the solubility at 24 h ([1]; organic solvent or mixture, solvent: Ethanol) was 35 µg/mL (≈ 59.9 µM), the solubility at 24 h ([1]; organic solvent or mixture, solvent: Glycerin) was 4.8 µg/mL (≈ 8.21 µM) and the solubility at 24 h ([1]; organic solvent or mixture, solvent: N,N-dimethylacetamide) was over 218000 µg/mL. For the same compound, the solubility at 24 h ([1]; organic solvent or mixture, solvent: Polyethylene glycol 400 (PEG 400)) was 52000 µg/mL (≈ 89000 µM), the solubility at 24 h ([1]; organic solvent or mixture, solvent: Propylene glycol) was 2300 µg/mL (≈ 3930 µM) and the Solubility ([1]; solvent: 5% aqueous solution of hydrochloric acid) was “Not detected”. The Solubility ([1]; solvent: 5% aqueous solution of sodium hydrogen carbonate) was “Not detected”, the Solubility ([1]; solvent: 5% aqueous solution of sodium oxide) was “Not detected” and the Solubility ([1]; solvent: Water) was “Not detected”. For the same compound, the “toxicity in animal toxicity test” value [2] was “significantly reduced toxicity”, the solubility in water [3] was 0.00 μl/ml and the “tumor size and weight” value (tumor) was “significantly reduces the tumor size and weight”. The angiogenesis inhibitory activity (HUVEC cells) was “strong angiogenesis inhibitory activity”.
